Data set [1] deals with SUDHL5 cells. Briefly: Antiproliferation assay (CellTiter-Glo, 72 h), SUDHL5. The note with it: IC50, median, SUDHL5, 72 h, read-out: Antiproli SUDHL5 [M] (median). The data set is classed as cell-based. How it is done:
(§1) Assessment of the Anti-Proliferative Effect of Compounds in Different Cell Lines
(§2) The impact of compounds on the proliferation of different cell lines was assessed using the CellTiter-Glo® Luminescent Cell Viability reagent from Promega (G7573).
(§3) In parallel, cells were plated in a reference (day 0) plate for time zero determination.
(§4) Rim wells were excluded. The cells were incubated for 72 h hours in a humidified incubator at 37° C. The day 0 plate was measured by adding 30 μL/well of CTG solution (CellTiter-Glo® Luminescent Cell Viability reagent, Promega G7573) to time zero wells in the reference plate followed by a 10 minutes incubation and luminescence reading at 0.1 ms. using the PHERAstar FS microplate reader (BMG Labtech).
(§5) After 72 h incubation, the treated plates were measured in the same way as the day 0 plate mentioned above.

Data set [2] relates to SUDHL10 cells. Briefly: Induction of caspase-3/7 activity (Caspase-Glo 3/7), SUDHL10. The format is cell-based. The conditions noted are these: EC50, median, SUDHL10, 3 h treatment. As for the experimental part:
(§6) Induction of Caspase-3/7 Activity Upon Treatment of Cells with Selected Compounds
(§7) The BH3-domain of MCL-1 sequesters pro-apoptotic proteins, thereby inhibiting apoptosis. In contrast, MCL-1 inhibitors are expected to antagonize this effect leading to an increase in apoptosis, which can be determined by measuring the activity of caspase-3/7.
(§8) The activity of caspase-3/7 was determined in DLBCL (Diffuse large B-cell lymphoma) cell lines (SUDHL5 and SUDHL10) upon treatment with different compounds, using the Caspase-Glo® 3/7 reagent from Promega (G8092).
(§9) Rim wells were excluded. The cells were incubated for 3 h hours in a humidified incubator at 37° C.
(§10) For the evaluation of the results, the background measured with “medium-only” was subtracted from all other values.

The subject of data set [3] is SUDHL5 cells. As to the kind of experiment: Induction of cytotoxicity (CellTiter-Glo, 5 h), SUDHL5. The conditions noted are these: SUDHL5, 5 h.
Protocol: Therefore, cytotoxicity assays were run in parallel in SUDHL5 and SUDHL10 cells.
The different cell lines were plated in culture medium (RPMI 1640 [GIBCO #22400-089] supplemented with 10% Fetal Bovine Serum) at a density of 3,300 cells in 30 μL/well in a sterile, solid black, flat bottom, polystyrene, TC-treated 384-well microplate (Corning #3571) using Multidrop Combi Reagent Dispenser. As a control, medium without cells was also added to the plate. Cells were incubated in a humidified incubator at 37° C. overnight. […] Rim wells were excluded. The cells were incubated for 5 h hours in a humidified incubator at 37° C. After this incubation, 30 μL of CellTiter-Glo® Luminescent Cell Viability reagent (Promega, G7573) was added to each well using the Multidrop Combi Reagent Dispenser, followed by 15 min incubation on a shaker at room temperature. Finally, luminescence was read at 0.1 ms, with a gain of 3000 using the PHERAstar FS microplate reader (BMG Labtech).
Data set [4] has as its system SUDHL5 cells. As to the kind of experiment: Induction of caspase-3/7 activity (Caspase-Glo 3/7), SUDHL5. The note with it: EC50, median, SUDHL5, 3 h treatment. The format is cell-based. As for the experimental part: as §6, §7, §8, §9, §10
The test system of data set [5] is SUDHL10 cells. Briefly: Induction of cytotoxicity (CellTiter-Glo, 5 h), SUDHL10. The note with it: SUDHL10, 5 h.
The subject of the next data set is AMO-1 cells. Briefly: Antiproliferation assay (CellTiter-Glo, 72 h), AMO-1. The format is cell-based. The conditions noted are these: IC50, median, AMO-1, 72 h, read-out: Antiproli AMO-1 [M] median. As for the experimental part: as §1, §2, §3, §4, §5
The mark [6] stands for this setting: Homo sapiens, SU-DHL-5, 5 h, read-out: Cytotox SUDHL5 [M] (median), IC50, median.
[7] abbreviates: Homo sapiens, SU-DHL10, 5 h, read-out: Cytotox SUDHL10 [M] (median), IC50, median.
Setting [8] is: read-out: Cytotox SUDHL10 [M] (median), IC50, median.
The mark [9] stands for this setting: read-out: Cytotox SUDHL5 [M] (median), IC50, median.

Structures can show the parent of a compound that is named as a salt. Where two headings read alike, the source gives them in different places.

Consider `CCc1nn(CCN2CCOCC2)c2c1-c1c(Cl)ccc3c(CCCOc4cccc5ccccc45)c(C(=O)O)n(c13)C/C=C\CN(C)C2` (racemic) [Example 42, (rac)-(11Z)-4-chloro-3-ethyl-14-methyl-1-[2-(morpholin-4-yl)ethyl]-7-{3-[(naphthalen-1-yl)oxy]-propyl}-10,13,14,15-tetrahydro-1H-pyrazolo[3′,4′:8,9][1,6]diazacycloundecino[10,11,1-hi]indole-8-carboxylic acid], for which the IC50 with SUDHL5 cells [1] (Homo sapiens, SU-DHL-5, 72 h) stood at 2.7e-06 M; in the data set with SUDHL5 cells [3] (setting [6]), 4e-06 M. Besides, the EC50 in the data set with SUDHL10 cells [2] (Homo sapiens, SU-DHL10, 3 h) amounted to 9.4 µM; in the data set on SUDHL5 cells [4] (Homo sapiens, SU-DHL-5, 3 h) it was 2.8 µM.
On to `CCc1nn(CCN2CCOCC2)c2c1-c1c(Cl)ccc3c(CCCOc4cccc5ccccc45)c(C(=O)O)n(c13)CCCCN(C)C2` (racemic) [Example 45, (rac)-4-chloro-3-ethyl-14-methyl-1-[2-(morpholin-4-yl)ethyl]-7-{3-[(naphthalen-1-yl)oxy]propyl}-10,11,12,13,14,15-hexahydro-1H-pyrazolo[3′,4′:8,9][1,6]diazacycloundecino[10,11,1-hi]indole-8-carboxylic acid], for which the IC50 was 7.2e-06 M with SUDHL5 cells [1] (Homo sapiens, SU-DHL-5, 72 h) and 8.1e-06 M with SUDHL5 cells [3] (setting [6]). Moreover, the EC50 in the data set with SUDHL5 cells [4] (Homo sapiens, SU-DHL-5, 3 h) is 9.4 µM.
As for `CCc1c2c(nn1C)CCCCCCn1c(C(=O)O)c(CCCOc3cccc4ccccc34)c3ccc(Cl)c-2c31` (racemic) [Example 51, (rac)-4-chloro-3-ethyl-2-methyl-7-{3-[(naphthalen-1-yl)oxy]propyl}-10,11,12,13,14,15-hexa-hydro-2H-pyrazolo[4′,3′:4,5]azacycloundecino[3,2,1-hi]indole-8-carboxylic acid], the IC50 in the data set on SUDHL5 cells [1] (Homo sapiens, SU-DHL-5, 72 h) amounted to 6.7e-06 M; in the data set on SUDHL5 cells [3] (setting [6]), 8.4e-06 M; in the data set with SUDHL10 cells [5] (setting [7]), 8.6e-06 M.
Take `CCc1c2c(nn1C)CNCCCCn1c(C(=O)O)c(CCCOc3cccc4cc(F)ccc34)c3ccc(Cl)c-2c31` (racemic) [Example 130, (rac)-4-chloro-3-ethyl-7-{3-[(6-fluoronaphthalen-1-yl)oxy]propyl}-2-methyl-10,11,12,13,14,15-hexahydro-2H-pyrazolo[3′,4′:8,9][1,6]diazacycloundecino[10,11,1-hi]indole-8-carboxylic acid]: the IC50 in the data set on SUDHL5 cells [1] (Homo sapiens, SU-DHL-5, 72 h) stood at 7.5e-06 M; in the data set with SUDHL5 cells [3] (setting [6]) it was 7.1e-06 M; with AMO-1 cells (Homo sapiens, AMO1, 72 h), 6.3e-06 M. The compound also returned an EC50 in the data set on SUDHL5 cells [4] (Homo sapiens, SU-DHL-5, 3 h) of 7.3 µM.
Regarding `CCc1c2c(nn1C)COCC1CC1Cn1c(C(=O)O)c(CCCOc3cccc4cc(F)ccc34)c3ccc(Cl)c-2c31` (single isomer, unassigned; (-)) [Example 105, (−)-3-chloro-4-ethyl-14-{3-[(6-fluoronaphthalen-1-yl)oxy]propyl}-5-methyl-5,7,9a,10,10a,11-hexahydro-9H-cyclopropa[3,4]pyrazolo[4′,3′:9,10][1,6]oxazacycloundecino[8,7,6-hi]indole-13-carboxylic acid N-ethylethanamine salt], the EC50 in the data set on SUDHL10 cells [2] worked out at 0.12 µM; in the data set on SUDHL5 cells [4] it was 0.13 µM. In addition, the IC50 with SUDHL10 cells [5] (setting [8]) was 2.2e-07 M.
Consider `CCc1c2c(nn1C)COCC1CC1Cn1c(C(=O)O)c(CCCOc3cccc4cc(F)ccc34)c3ccc(Cl)c-2c31` (single isomer, unassigned; (-)) [Example 108, (−)-3-chloro-4-ethyl-14-{3-[(6-fluoronaphthalen-1-yl)oxy]propyl}-5-methyl-5,7,9a,10,10a,11-hexahydro-9H-cyclopropa[3,4]pyrazolo[4′,3′:9,10][1,6]oxazacycloundecino[8,7,6-hi]indole-13-carboxylic acid], for which the IC50 in the data set with SUDHL5 cells [1] was found to be 1e-05 M; in the data set on SUDHL5 cells [3] (setting [9]) it was 7e-06 M; in the data set with AMO-1 cells, 1.3e-06 M. Also, the EC50 with SUDHL10 cells [2] was 7.8 µM; with SUDHL5 cells [4], 6.3 µM.
On to `CCc1nn(C)c2c1-c1c(Cl)ccc3c(CCCOc4cccc5cc(F)ccc45)c(C(=O)O)n(c13)CCCCN(C)C2` (single isomer, unassigned; enantiomer 1) [Example 40, 4-chloro-3-ethyl-7-{3-[(6-fluoronaphthalen-1-yl)oxy]propyl}-1,14-dimethyl-10,11,12,13,14,15-hexahydro-1H-pyrazolo[3′,4′:8,9][1,6]diazacycloundecino[10,11,1-hi]indole-8-carboxylic acid (Enantiomer 1)], for which the IC50 in the data set on SUDHL5 cells [1] (Homo sapiens, SU-DHL-5, 72 h) was found to be 2e-07 M; with AMO-1 cells (Homo sapiens, AMO1, 72 h), 3.6e-07 M. The compound further came in with an EC50 in the data set on SUDHL5 cells [4] (Homo sapiens, SU-DHL-5, 3 h) of 0.2 µM.
Regarding `CCc1c2c(nn1C)COCCCCn1c(C(=O)O)c(CCCOc3cccc4cc(F)ccc34)c3ccc(Cl)c-2c31` (single isomer, unassigned; enantiomer 1) [Example 69, 4-chloro-3-ethyl-7-{3-[(6-fluoronaphthalen-1-yl)oxy]propyl}-2-methyl-2,10,11,12,13,15-hexahydropyrazolo[4′,3′:9,10][1,6]oxazacycloundecino[8,7,6-hi]indole-8-carboxylic acid (Enantiomer 1)], the IC50 in the data set with SUDHL5 cells [1] (Homo sapiens, SU-DHL-5, 72 h) amounted to 4.2e-06 M; in the data set on SUDHL5 cells [3] (setting [6]), 2.3e-06 M; in the data set with SUDHL10 cells [5] (setting [7]), 7.3e-06 M. The EC50 in the data set on SUDHL10 cells [2] (Homo sapiens, SU-DHL10, 3 h) turned out to be 8.3 µM; in the data set on SUDHL5 cells [4] (Homo sapiens, SU-DHL-5, 3 h), 1.8 µM.
As for `Cc1c2c(nn1C)COCC1CCC1Cn1c(C(=O)O)c(CCCOc3cccc4ccccc34)c3ccc(Cl)c-2c31` (single isomer, unassigned; enantiomer 1) [Example 78, 3-chloro-4,5-dimethyl-15-{3-[(naphthalen-1-yl)oxy]propyl}-5,7,9,9a,10,11,11a,12-octahydrocyclobuta[3,4]pyrazolo[4′,3′:9,10][1,6]oxazacycloundecino[8,7,6-hi]indole-14-carboxylic acid (Enantiomer 1)], the EC50 was found to be 3.8 µM with SUDHL10 cells [2] (listed as 078) and 0.67 µM in the data set with SUDHL5 cells [4] (Homo sapiens, SU-DHL-5, 3 h). For the same compound, the IC50 in the data set with SUDHL5 cells [3] (setting [6]) was 8.2e-07 M; in the data set on AMO-1 cells (Homo sapiens, AMO1, 72 h) it was 3e-06 M; with SUDHL10 cells [5] (setting [7]), 3.1e-06 M.
For `CCc1c2c(nn1C)CN(CCC1CCOCC1)CCCCn1c(C(=O)O)c(CCCOc3cccc4cc(F)ccc34)c3ccc(Cl)c-2c31` (single isomer, unassigned; enantiomer 2) [Example 137, 4-chloro-3-ethyl-7-{3-[(6-fluoronaphthalen-1-yl)oxy]propyl}-2-methyl-14-[2-(oxan-4-yl)ethyl]-10,11,12,13,14,15-hexahydro-2H-pyrazolo[3′,4′:8,9][1,6]diazacycloundecino[10,11,1-hi]indole-8-carboxylic acid N-ethylethanamine (Enantiomer 2)], the IC50 was 5.1e-06 M in the data set on SUDHL5 cells [1] (Homo sapiens, SU-DHL-5, 72 h); 8.2e-06 M in the data set with SUDHL5 cells [3] (setting [6]); 5e-06 M with AMO-1 cells (Homo sapiens, AMO1, 72 h); 7.7e-06 M in the data set on SUDHL10 cells [5] (setting [7]).
Take `CCc1c2c(nn1C)COCC(O)CCn1c(C(=O)O)c(CCCOc3cccc4cc(F)ccc34)c3ccc(Cl)c-2c31` (stereo not drawn) [Example 101, 4-chloro-3-ethyl-7-{3-[(6-fluoronaphthalen-1-yl)oxy]propyl}-12-hydroxy-2-methyl-2,10,11,12,13,15-hexahydropyrazolo[4′,3′:9,10][1,6]oxazacycloundecino[8,7,6-hi]indole-8-carboxylic acid-N-ethylethanamine salt]: the 50% effective concentration (EC50) came out at 6.1 µM in the data set on SUDHL10 cells [2] and 5.9 µM in the data set on SUDHL5 cells [4]. Further, the IC50 in the data set on SUDHL5 cells [3] (setting [9]) is 7.3e-06 M; in the data set on SUDHL10 cells [5] (setting [8]) it was 7.7e-06 M.
The compound `CCc1c2c(nn1C)COCC(O)CCn1c(C(=O)O)c(CCCOc3cccc4cc(F)ccc34)c3ccc(Cl)c-2c31` (stereo not drawn) [Example 102, 4-chloro-3-ethyl-7-{3-[(6-fluoronaphthalen-1-yl)oxy]propyl}-12-hydroxy-2-methyl-2,10,11,12,13,15-hexahydropyrazolo[4′,3′:9,10][1,6]oxazacycloundecino[8,7,6-hi]indole-8-carboxylic acid-N-ethylethanamine salt] displayed an EC50 in the data set with SUDHL10 cells [2] of 7.8 µM. Also, the IC50 in the data set on SUDHL5 cells [3] (setting [9]) is 8.4e-06 M; in the data set with SUDHL10 cells [5] (setting [8]), 8.2e-06 M.
For the compound `CCc1c2c(nn1C)CN(C)CCCn1c(C(=O)O)c(CCCOc3cccc4cc(F)ccc34)c3ccc(Cl)c-2c31` [Example 114, (−)-2-chloro-11-ethyl-1-{3-[(6-fluoronaphthalen-1-yl)oxy]propyl}-7,10-dimethyl-4,5,6,7,8,10-hexahydropyrazolo[3′,4′:7,8][1,5]diazecino[9,10,1-hi]indole-2-carboxylic acid salt], the EC50 in the data set on SUDHL10 cells [2] stood at 6.3 µM; in the data set on SUDHL5 cells [4], 4.3 µM. Besides, the figures for the IC50 with SUDHL5 cells [3] (setting [9]), in the data set with AMO-1 cells and with SUDHL10 cells [5] (setting [8]) were 5.7e-06 M, 4.4e-06 M and 5.9e-06 M, respectively.

(Values after patent US11478451B1, “Macrocyclic chlorine substituted indole derivatives” (Bayer Aktiengesellschaft, priority 2017, dated 2022).)
